From patent US12397007B2, “Methods of treatment with combinations of cannabidiol and psilocybin” (ECP Pharma, priority 2021, dated 2025)

How the values were obtained:
[1] = system: rat blast model of TBI; assay: Rat blast model of TBI, light dark box; assay type: in vivo; conditions: CBD 5 mg/kg IP, psilocybin 1.5 mg/kg PO from one hour after injury, 7 total doses; vs vehicle; FIG. 2
Excerpt: This increased time spent in light was not seen with either CBD or psilocybin when dosed separately.

[2] = system: adult rats exposed to a moderate fluid-percussion pulse over the right parietal cortex; assay: Moderate fluid-percussion TBI, stereological volumetric analyses of contusion and cortical atrophy; assay type: in vivo, rat; conditions: approximately 4 weeks after injury; relative to injured vehicle-control animals; FIG. 5 right panel
Method: (§1) Another study was conducted in rats to evaluate the synergy of an oral combination of psilocybin and CBD in mitigating TBI-induced pathology in a preclinical model of TBI. In this study, adult rats were exposed to a moderate fluid-percussion pulse over the right parietal cortex.
(§2) Psilocybin (1.5 mg/kg) and/or CBD (5 mg/kg) in 1 mL of ddH2O (or vehicle/ddH2O alone) was dosed by oral gavage at 1-hour post-injury, and for 1×/day for 6 consecutive days thereafter, resulting in 7 total dosage administrations. Animals receiving psilocybin+CBD were exposed to a traumatic/fearful stimulus (predatory urine) to evaluate anxiety-like behavior. Outcome measurements included sensorimotor (cylinder test), cytoprotection (volumetric analyses of contusion and cortical atrophy), and neuroinflammation (microglia reactivity).

[3] = system: Iba1+ microglia; assay: Moderate fluid-percussion TBI, immunohistochemical analysis of microglia reactivity; assay type: in vivo, rat
Method: as §1, §2
Boxes demarcate representative cells in which changes could be compared.

[4] = preliminary quantitative analyses, FIG. 7

C=C(C)[C@@H]1CCC(C)=C[C@H]1c1c(O)cc(CCCCC)cc1O [CBD, Cannabidiol]
stress, time spent in light in the light dark box [1]: not seen | cortical volume atrophy [2]: trended positively towards normalization | reactive microglia morphology, CA1 ([3]; CBD 5 mg/kg alone vs TBI/Vehicle, FIG. 6 bottom row): seemed to reduce reactive microglia morphology | number of Iba1+ cells, dentate gyrus of ipsilateral hippocampus ([3]; CBD 5 mg/kg alone vs controls, FIG. 6 middle row): significantly greater in number in controls compared to CBD group | Iba1+ cell density, CA1 ([3]; CBD 5 mg/kg alone vs injured vehicle, FIG. 6 bottom row): no overt differences | injury-induced Iba+ microglia changes ([3]; CBD 5 mg/kg alone, FIG. 6): normalization of injury-induced Iba+microglia changes | density of Iba1+ cells, pericontusional cortex ([3]; CBD 5 mg/kg alone, FIG. 6 top row): reduced density of Iba1+ cells | activated microglia phenotypes, cortical penumbra [3, 4]: significantly decreased | overall microglia numbers, cortical penumbra [3, 4]: reduced overall microglia numbers
